Consider 1 compound from patent US9884040B2, “Desethylamiodarone for use in cancer treatment” (PÉCSI TUDOMÁNYEGYETEM, priority 2015, dated 2018).

Data set [1] relates to T24 (human urinary bladder carcinoma) cells. Put plainly: MTT cell viability assay, T24. Format: cell-based. The settings on record: 24 h and 48 h; 5, 10, 15 and 15 μM; vs untreated control. The protocol:
(§1) The cells were seeded into 96-well plates at a starting density of 10^4 cells per well and cultured overnight before DEA was added to the medium for 24 h and 48 h. The medium was changed to a fresh one containing 0.5% of 3-[4,5-dimethylthiazol-2-yl]-2,5-diphenyl-tetrazolium bromide (MTT+) for an additional 3 hours, then the MTT+ reaction was terminated by adding HCl to 10 mM final concentration. The amount of blue formazan dye formed from MTT+ was proportional to the number of live cells, and was determined with an Anthos Labtech 2010 ELISA reader at 550 nm. All experiments were run in at least 4 replicates and repeated 3 times.
The effect of desethylamiodarone was measured in T24 (human urinary bladder carcinoma), A549 (human lung adenocarcinoma epithelial), B16F10 (mice melanoma), HeLa (human cervix adenocarcinoma), 4T1 (mouse mammary carcinoma) cell lines. Cells were treated with increasing concentrations of desethylamiodarone for 24 and 48 h. Cell growth was assessed by measuring metabolic activity, which reflects viability in the MTT-test in the course of 24 h, 48 h of continued exposure to desethylamiorarone. The untreated cells served as negative controls. […]
T24 cells were exposed for 24 h (A), 48 h (B) to […], 10 μM, 15 μM and 15 μM desethylamiodarone (filled bars). Viability of the cells was detected by the MTT+ method. […]

Data set [2] relates to 4T1 (mouse mammary carcinoma) cells. The data set is described as follows: MTT cell viability assay, 4T1. Format: cell-based. To be noted: 24 h and 48 h; 2.5, 5, 7.5 or 10 μM; vs untreated control. The protocol: The cells were seeded into 96-well plates at a starting density of 10^4 cells per well and cultured overnight before DEA was added to the medium for 24 h and 48 h. […] The amount of blue formazan dye formed from MTT+ was proportional to the number of live cells, and was determined with an Anthos Labtech 2010 ELISA reader at 550 nm. All experiments were run in at least 4 replicates and repeated 3 times. The effect of desethylamiodarone was measured in T24 (human urinary bladder carcinoma), A549 (human lung adenocarcinoma epithelial), B16F10 (mice melanoma), HeLa (human cervix adenocarcinoma), 4T1 (mouse mammary carcinoma) cell lines. Cells were treated with increasing concentrations of desethylamiodarone for 24 and 48 h. Cell growth was assessed by measuring metabolic activity, which reflects viability in the MTT-test in the course of 24 h, 48 h of continued exposure to desethylamiorarone. The untreated cells served as negative controls. The viability of the cells, was lower in all DEA-treated than in the control group, with the difference being statistically significant. […] 4T1 cells were incubated with the indicated concentrations (2.5, 5, 7.5 or 10 μM) of desethylamiodarone for 24 h and 48 h and cell viability was measured by MTT assay (filled bars). Untreated cells served as controls. Data represent means±S.E.M. of three independent experiments, each running in four replicates.
For orientation: Tetrazolium dyes change colour on reduction, which living cells bring about.

In data set [3] the test system is DU-145 prostate cancer cell line. Put plainly: Cisplatin sensitivity of DU-145 cells with DEA (MTT). Type of data set: cell-based. The settings on record: increasing cisplatin, 48 hours, presence or absence of 10 μM DEA. The protocol: as §1
DU-145 cells were exposed to increasing concentrations of cisplatin 48 hours in presence or absence of 10 μM DEA. Viability of the cells was detected by the MTT method. Untreated cells served as controls.

Data set [4] has as its system 4T1 (mouse mammary carcinoma) cells. The data set is described as follows: Colony formation assay, 4T1. Type of data set: cell-based. The settings on record: one week following treatment. The text has this:
Desethylamiodarone (DEA) is the main metabolite of the widely used anti-arrhythmic drug amiodarone. DEA also has antiarrhythmic activity in clinical relevant concentration. […] (27, 28, 29, 30) DEA accumulates rapidly in the lungs. […] Here, we checked whether Desethylamiodarone can affect invasion, migration of cancer cells. First of all, we initially checked whether desethylamiodarone has effect on the viability of T24 (human urinary bladder carcinoma), B16F10 (mice melanoma), 4T1 (mouse mammary carcinoma) cells using MTT assay. As shown in FIG. 1-3 Desethylamiodarone had significant cytotoxic activity in very low concentrations. To assess the recovery ability of cells that survived treatment, long-term (7 days) colony formation assay was performed.
Cells were trypsinized and plated in triplicate into 6-well plates at 500 cells/well. Cells were treated with different concentration of Dea. After 7 days of incubation, cells were washed and stained with Coomassie-blue, and the colonies containing more than 50 cells were counted. The number of colonies were determined and normalized to the number of colonies in controls.

Data set [5] relates to T24 human bladder cancer cell line. Put plainly: Radiotherapy plus DEA, colony formation, T24. Format: cell-based. To be noted: 1Gy or 2Gy single dose alone or with 500 nM-3 μM DEA. The protocol:
Cells were trypsinized and plated in triplicate into 6-well plates at 500 cells/well. Cells were treated with different concentration of DEA and irradiated with a dose of 1.0 and 2.0 Grays. A telecobalt (Therathron 780 C) external irradiation equipment (average photon energy of 1.25 MeV) will be applied for irradiating cells. After 7 days of incubation, cells were washed and stained with Coomassie-blue, and the colonies containing more than 50 cells were counted. The number of colonies were determined and normalized to the number of colonies in controls.
To examine the effects of a DEA on the effectiveness of radiotherapy the cells were treated with 1Gy or 2Gy single dose irradiation alone or combined with 500 nM-3 μM DEA.
The cells were treated with 1Gy or 2Gy single dose irradiation alone or combined with 500 nM-3 μM DEA. Untreated cells served as controls. The results are mean±SEM of 3 independent experiments performed in at least quadruplicate. P<0.05 compared to the corresponding control group.

Data set [6] has as its system DU-145 prostate cancer cell line. Put plainly: MTT cell viability assay, DU-145. Format: cell-based. To be noted: increasing concentrations, 24, 48 and 72 hours. The protocol:
as §1
145 cells were exposed to increasing concentrations of DEA for 24, 48 and 72 hours. Viability of the cells was detected by the MTT method. Untreated cells served as controls.

The conditions of data set [7]: clinically relevant concentrations; cited from earlier work.
For data set [8] the following is noted: cited from earlier work.

In the case of `CCCCc1oc2ccccc2c1C(=O)c1cc(I)c(OCCNCC)c(I)c1` [DEA, (2-butyl-3-benzofuranyl)[4-[2-(ethylamino)ethoxy]-3,5-diiodophenyl]-methanone], the “Viability of T24 cells (MTT)” value in data set [1] is “Significantly different from control group at p<0.01”. Besides, the “Viability of 4T1 cells (MTT)” value in data set [2] was “Significantly different from control group at p<0.05”. Also, the “Cisplatin sensitivity of DU-145 cells (MTT)” value in data set [3] is on record as “sensitizes DU-145 prostate cancer cells for cisplatin”. The “Colony formation, 4T1” value in data set [4] is “significant decrease in the number and the size of colonies”. The “Radiosensitization, colony formation, T24” value in data set [5] is given as “sensitize bladder cancer to irradiation”. Moreover, the “Viability of DU-145 cells (MTT)” value in data set [6] is reported as “induces cell death”. Moreover, in data set [7], the “Action potential duration (class III antiarrhythmic effect)” value is recorded as “significantly increasing the action potential duration” and the “Maximum rate of depolarization (class I antiarrhythmic effect)” value is “decreasing the maximum rate of depolarization”. The “Concentration in patient plasma” value in data set [8] (after amiodarone in therapeutic doses) is 1700 to 4500 nM. The Mean elimination half-life in data set [8] (in vivo) was 40 days.
